Key:
Assay in all cases: relative viability (nuclei count vs DMSO), 5 days (fraction); higher = more cells survive
Olaparib + Foretinib = compound: O=C(c1cc(Cc2n[nH]c(=O)c3ccccc23)ccc1F)N1CCN(C(=O)C2CC2)CC1 [Olaparib] + COc1cc2c(Oc3ccc(NC(=O)C4(C(=O)Nc5ccc(F)cc5)CC4)cc3F)ccnc2cc1OCCCN1CCOCC1 [Foretinib] (partner 0.25 µM)
How it was run: (§1)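 Each reported value is a median over duplicate plates. It expresses relative viability: treated-well nuclei count divided by vehicle-well nuclei count. Lung cancer cell lines in 1536-well plates were dosed by pin tool a day after seeding, alone with one drug or with a fixed anchor-drug dose plus five library-drug doses (not always all listed) in √10 steps, and nuclei were counted after 5 days.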

Olaparib + Trametinib = compound: O=C(c1cc(Cc2n[nH]c(=O)c3ccccc23)ccc1F)N1CCN(C(=O)C2CC2)CC1 [Olaparib] + CC(=O)Nc1cccc(-n2c(=O)n(C3CC3)c(=O)c3c(Nc4ccc(I)cc4F)n(C)c(=O)c(C)c32)c1 [Trametinib] (partner 0.02 µM)
How it was run: as §1

Carfilzomib + OSI-027 = compound: CC(C)C[C@H](NC(=O)[C@H](CCc1ccccc1)NC(=O)CN1CCOCC1)C(=O)N[C@@H](Cc1ccccc1)C(=O)N[C@@H](CC(C)C)C(=O)[C@@]1(C)CO1 [Carfilzomib] + COc1cccc2cc(-c3nc([C@H]4CC[C@H](C(=O)O)CC4)n4ncnc(N)c34)[nH]c12 [OSI-027] (partner 0.5 µM)
How it was run: as §1

Crizotinib + Pemetrexed = compound: C[C@@H](Oc1cc(-c2cnn(C3CCNCC3)c2)cnc1N)c1c(Cl)ccc(F)c1Cl [Crizotinib] + Nc1nc2[nH]cc(CCc3ccc(C(=O)N[C@@H](CCC(=O)O)C(=O)O)cc3)c2c(=O)[nH]1 [Pemetrexed] (partner 0.2 µM)
How it was run: as §1

| Cell Line | relative viability (Olaparib + Foretinib; first compound 0.08 µM) | relative viability (Olaparib + Foretinib; first compound 0.253 µM) | relative viability (Olaparib + Foretinib; first compound 2.53 µM) | relative viability (Olaparib + Foretinib; first compound 8 µM) | relative viability (Olaparib + Trametinib; first compound 0.08 µM) | relative viability (Olaparib + Trametinib; first compound 0.253 µM) | relative viability (Olaparib + Trametinib; first compound 2.53 µM) | relative viability (Olaparib + Trametinib; first compound 8 µM) | relative viability (Carfilzomib + OSI-027; first compound 0.001 µM) | relative viability (Carfilzomib + OSI-027; first compound 0.003162 µM) | relative viability (Carfilzomib + OSI-027; first compound 0.01 µM) | relative viability (Carfilzomib + OSI-027; first compound 0.03162 µM) | relative viability (Carfilzomib + OSI-027; first compound 0.1 µM) | relative viability (Crizotinib + Pemetrexed; first compound 0.01 µM) | relative viability (Crizotinib + Pemetrexed; first compound 0.03162 µM) | relative viability (Crizotinib + Pemetrexed; first compound 0.1 µM) | relative viability (Crizotinib + Pemetrexed; first compound 0.3162 µM) | relative viability (Crizotinib + Pemetrexed; first compound 1 µM) |
| --- | --- | --- | --- | --- | --- | --- | --- | --- | --- | --- | --- | --- | --- | --- | --- | --- | --- | --- |
| NCI-H1355 | 1.12 | 0.941 | 1 | 0.832 | 0.385 | 0.433 | 0.481 | 0.476 | 0.411 | 0.495 | 0.493 | 0.311 | 0.163 | 0.998 | 0.928 | 1.08 | 0.976 | 1.07 |
| LCLC-103H | 1.13 | 0.652 | 0.732 | 0.673 | 0.669 | 0.689 | 0.679 | 0.652 | 0.462 | 0.463 | 0.541 | 0.483 | 0.277 | 0.493 | 0.47 | 0.447 | 0.461 | 0.444 |
| NCI-H838 | 1.18 | 0.921 | 1.02 | 1.01 | 0.585 | 0.493 | 0.536 | 0.547 | 0.367 | 0.45 | 0.431 | 0.388 | 0.131 | 0.214 | 0.237 | 0.253 | 0.265 | 0.24 |
| Calu-6 | 0.892 | 0.789 | 0.855 | 0.536 | – | – | – | – | – | – | – | – | – | – | – | – | – | – |
| BEN | – | 0.529 | 0.688 | 0.702 | 1.11 | 0.991 | 1.07 | 1.1 | 0.312 | 0.313 | 0.3 | 0.294 | 0.263 | 0.726 | 0.741 | 0.739 | 0.596 | 0.702 |
| NCI-H1651 | 0.828 | 0.681 | 0.544 | 0.301 | 0.849 | 0.75 | 0.642 | 0.504 | 0.733 | 0.743 | 0.588 | 0.127 | 0.0922 | 0.545 | 0.369 | 0.65 | 0.378 | 0.535 |
| NCI-H2087 | 1.08 | 0.921 | 0.949 | 0.736 | 0.219 | 0.208 | 0.215 | 0.188 | 0.593 | 0.636 | 0.302 | 0.0521 | 0.0683 | 0.725 | 0.724 | 0.553 | 0.702 | 0.723 |
| NCI-H520 | 0.848 | 0.761 | 0.624 | 0.359 | 0.794 | 0.527 | 0.506 | 0.311 | 0.19 | 0.259 | 0.22 | 0.221 | 0.191 | 0.564 | 0.626 | 0.644 | 0.789 | 0.756 |
| NCI-H460 | 0.925 | 0.889 | 0.914 | 0.437 | 0.115 | 0.0823 | 0.121 | 0.0533 | 0.647 | 0.678 | 0.697 | 0.287 | 0.022 | 0.0615 | 0.0628 | 0.0607 | 0.0596 | 0.0647 |
| SK-MES-1 | 1.05 | 0.861 | 0.907 | 0.889 | 0.577 | 0.539 | 0.608 | 0.616 | 0.637 | 0.632 | 0.652 | 0.336 | 0.145 | 0.879 | 0.928 | 0.927 | – | 0.924 |
| NCI-H661 | 1.16 | 0.97 | 0.948 | 0.775 | 0.602 | 0.5 | 0.569 | 0.525 | 0.698 | 0.705 | 0.722 | 0.675 | 0.394 | 0.82 | 0.939 | 0.854 | 1 | 0.904 |
| NCI-H1993 | 0.906 | 0.794 | 1.04 | 0.931 | 0.559 | 0.57 | 0.517 | 0.384 | 0.573 | 0.569 | 0.576 | 0.443 | 0.459 | 0.57 | 0.632 | 0.503 | 0.528 | 0.47 |
| NCI-H23 | 1.19 | 0.904 | 0.971 | 0.706 | 0.402 | 0.439 | 0.385 | 0.368 | 0.592 | 0.887 | 0.716 | 0.145 | 0.144 | 0.489 | 0.591 | 0.567 | – | 0.812 |
| LCLC-97TM1 | 0.912 | 0.827 | 0.958 | 0.812 | 0.237 | 0.165 | 0.215 | 0.203 | 0.459 | 0.512 | 0.533 | 0.298 | 0.246 | 0.201 | 0.16 | 0.166 | 0.17 | 0.192 |
| A549 | 0.996 | 0.774 | 0.872 | 0.548 | – | – | – | – | – | – | – | – | – | – | – | – | – | – |
| EBC-1 | 0.116 | 0.094 | 0.1 | 0.107 | – | – | – | – | – | – | – | – | – | – | – | – | – | – |
| NCI-H1299 | 1.13 | 1.07 | 1.11 | 1.07 | – | – | – | – | – | – | – | – | – | – | – | – | – | – |
| NCI-H522 | – | – | – | – | 0.679 | 0.733 | 0.711 | 0.715 | 0.585 | 0.731 | 0.634 | 0.461 | 0.456 | 1.04 | 0.968 | 0.828 | 1.04 | 0.999 |
| NCI-H1563 | 0.962 | 0.92 | 1.02 | 0.935 | – | – | – | – | 0.775 | 0.71 | 0.797 | 0.705 | 0.586 | 0.759 | 0.833 | 0.757 | 0.735 | 0.875 |
| NCI-H727 | 0.843 | 1.06 | 0.911 | 0.703 | 0.415 | 0.363 | 0.37 | 0.349 | 0.618 | 0.646 | 0.734 | 0.463 | 0.242 | – | – | – | – | – |
| HCC-44 | – | – | – | – | 1.04 | 0.949 | 1.01 | 0.996 | 0.48 | 0.564 | 0.574 | 0.338 | 0.217 | 0.603 | 0.648 | 0.689 | 0.593 | 0.665 |

— the supplement of paper PMC10307832
